According to US9944740B2, “Sugar containing, amphiphilic copolymers” (REGENTS OF THE UNIVERSITY OF MINNESOTA, priority 2013, dated 2018):
Converted amounts (≈) assume the structure as drawn.

What was measured:
[1] = Phenytoin dissolution study (spray dried dispersions or crystalline API) in phosphate buffer pH 6.5 with simulated intestinal fluid powder, 37° C., HPLC; type: physicochemical; conditions: crystalline phenytoin
Description: (§1) Samples (either spray dried dispersions or crystalline API as received) were weighed into 2.0 mL conical microcentrifuge tubes in duplicate. Phosphate buffer solution (82 mM sodium chloride, 20 mM sodium phosphate dibasic, 47 mM potassium phosphate monobasic, 0.5 wt % simulated intestinal fluid powder, pH 6.5) at 37° C. was added in an amount that would produce a final concentration of drug of 1000 mg/L if all material was fully dissolved (e.g., 7.2 mg of spray dried dispersion consisting of 1.8 mg griseofulvin and 5.4 mg polymer was diluted with 1.8 mL buffer solution). Samples were vortexed 1 min and set in an isothermal aluminum sample holder set at 37° C. At each time point, samples were centrifuged 1 min at >13,000×g (g=gravitational force on earth), and a 50 μl aliquot was removed and diluted with 250 μl methanol. The samples were again vortexed 30 s and held at 37° C. until the next time point. Drug concentration in each aliquot was determined by reverse phase HPLC.
Probucol and phenytoin concentrations were quantified using a Agilent 1260 Infinity Quaternary HPLC equipped. The HPLC consisted of a reversed-phase EC-C18 column (Poroshell 120, 4.6×50 mm, 2.7 μm, Agilent, USA). The mobile phase was acetonitrile: water 96:4 for probucol and acetonitrile: water 40:60 for phenytoin, and the flow rate was 1.0 mL/min. A 10 μL aliquot of sample was injected, and the column effluent was detected at 241 nm for probucol (eluted at 2.90 min) and 225 nm for phenytoin (eluted at 1.40 min) with a UV detector (1260 Infinity Multiple Wavelength Detector, Agilent). The standard curve linearity was verified from 0.1 to 1000 μg/mL with an r^2 value of at least 0.999.
Two different drugs, probucol and phenytoin, were formulated at different weight percent, using the polymers disclosed herein (see Table 1 for polymer sample numbers). […]

[2] = Probucol dissolution study (spray dried dispersions or crystalline API) in phosphate buffer pH 6.5 with simulated intestinal fluid powder, 37° C., HPLC; type: physicochemical; conditions: pH 6.5, fassif, thermodynamic from solid
Description: as §1
Probucol and phenytoin concentrations were quantified using a Agilent 1260 Infinity Quaternary HPLC equipped. […] A 10 μL aliquot of sample was injected, and the column effluent was detected at 241 nm for probucol (eluted at 2.90 min) and 225 nm for phenytoin (eluted at 1.40 min) with a UV detector (1260 Infinity Multiple Wavelength Detector, Agilent). […]

Structure (SMILES)	Concentration (phenytoin dissolution control) ([1]; Time 0)	Concentration (phenytoin dissolution control) ([1]; Time 4)	Concentration (phenytoin dissolution control) ([1]; Time 10)	Concentration (phenytoin dissolution control) ([1]; Time 20)	Concentration (phenytoin dissolution control) ([1]; Time 40)	Concentration (phenytoin dissolution control) ([1]; Time 90)	Concentration (phenytoin dissolution control) ([1]; Time 180)	Concentration (phenytoin dissolution control) ([1]; Time 360)	solubility [2]
O=C1NC(=O)C(c2ccccc2)(c2ccccc2)N1 [Phenytoin, phenytoin]	0 ng/mL	38000 ng/mL	46000 ng/mL	45000 ng/mL	48000 ng/mL	51000 ng/mL	45000 ng/mL	48000 ng/mL	–
CC(C)(Sc1cc(C(C)(C)C)c(O)c(C(C)(C)C)c1)Sc1cc(C(C)(C)C)c(O)c(C(C)(C)C)c1 [probucol]	–	–	–	–	–	–	–	–	4 µg/mL (≈ 7.74 µM)
